Assay: Viscosity by Brookfield DV-II viscometer
Format: physicochemical
Conditions: 50 wt % product, spindle 34, 10 to 40° C.; compared to Na4 GLDA; data in FIG. 1
Procedure: After addition of the KOH (45% sol) and the NaOH (50% sol) solution the products were subjected to evaporation to isolate an alkalimetal salt of glutamic acid-N,N-diacetic acid product having a concentration of 50 wt %.
The viscosity of the alkalimetal salt of glutamic acid-N,N-diacetic acid products prepared in Examples 1a-e was determined using a Brookfield DV-II viscometer with a spindle 34 at a temperature of 10 to 40° C.

For O=C([O-])CC[C@@H](C(=O)[O-])N(CC(=O)[O-])CC(=O)[O-].[K+].[K+].[Na+].[Na+] [Na2K2 GLDA], the viscosity was “significantly lower viscosity”.

With O=C(O)CC[C@@H](C(=O)O)N(CC(=O)O)CC(=O)O.[K].[Na].[Na].[Na] [Na3K GLDA, monopotassium trisodium glutamic acid-N,N-diacetic acid] the viscosity was “significantly lower viscosity”.

From patent US8399705B2, “Alkali metal salt of glutamic acid N,N-diacetic acid, a process to prepare such salt, and the use thereof” (Akzo Nobel N.V., priority 2007, dated 2013)
